From patent publication US20240132431A1, “METHOD FOR ALKYLATING ACIDIC FUNCTIONAL GROUP” (Chugai Seiyaku Kabushiki Kaisha, priority 2021, published 2024)

Target: T1, Bcl-2 protein (Recombinant Human Bcl-2 Protein) (Homo sapiens, UniProt P10415)
T1 construct: purchased Novus NBP2-34889
Assay: Binding evaluation of mixture library compounds to Bcl-2 using AS-MS (affinity selection mass spectrometry)
Details: ASMS Ratio(%)=(A−C)/B×100; for ASMS ratio (%) n = 1: replicate n = 1; for ASMS ratio (%) n = 2: replicate n = 2
Method in brief: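 Pooled library of ~1200 compounds ([…] each, final) incubated with recombinant human Bcl-2 (20 μM final) in Tris-HCl pH 7.4, NaCl, Tween-20, DTT buffer, dark, 23° C., 1 h. Bound fraction recovered by SEC spin column, organic extraction, reversed-phase LC/MS. ASMS Ratio (%) = (A−C)/B×100 versus protein-free standard and SEC blank.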

[1] = AS-MS, mixture of 1200 compounds, Bcl-2
[2] = AS-MS on the mixture of 1200 library compounds

T1 sequence (P10415 whole entry): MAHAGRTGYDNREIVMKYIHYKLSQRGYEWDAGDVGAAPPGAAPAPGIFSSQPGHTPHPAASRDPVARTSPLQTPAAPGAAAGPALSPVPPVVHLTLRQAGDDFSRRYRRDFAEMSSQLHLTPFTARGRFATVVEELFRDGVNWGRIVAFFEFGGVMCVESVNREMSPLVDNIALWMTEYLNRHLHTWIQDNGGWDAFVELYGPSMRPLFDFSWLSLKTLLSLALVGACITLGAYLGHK

SMILES	ASMS ratio (%) n = 1 [1]	ASMS ratio (%) n = 2 [1]	ASMS ratio (%) n = 1 [2]	ASMS ratio (%) n = 2 [2]
CCOc1cccc(C#Cc2ccccc2CN2CCN(c3ccc(C(=O)NCC(F)(F)F)nn3)CC2)c1 [B1K095-01, 6-[4-[[2-[2-(3-Ethoxyphenyl)ethynyl]phenyl]methyl]piperazin-1-yl]-N-(2,2,2-trifluoroethyl)pyridazine-3-carboxamide]	3.5%	−0.6%		
CCOc1cncc(C#Cc2ccccc2CN2CCN(c3ccc(C(=O)NCC(F)(F)F)nn3)CC2)c1 [B1K096-01, 6-[4-[[2-[2-(5-Ethoxypyridin-3-yl)ethynyl]phenyl]methyl]piperazin-1-yl]-N-(2,2,2-trifluoroethyl)pyridazine-3-carboxamide]	0.0%	0.0%		
CCOc1cccc(-c2ccc(C(C)N3CCN(c4ccc(C(=O)NCC(F)(F)F)cc4)CC3)cc2)c1 (centres unmarked) [B1K097-01, 4-[4-[1-[4-(3-Ethoxyphenyl)phenyl]ethyl]piperazin-1-yl]-N-(2,2,2-trifluoroethyl)benzamide]	−2.1%	−3.1%		
CCOc1cncc(-c2ccc(C(C)N3CCN(c4ccc(C(=O)NCC(F)(F)F)cc4)CC3)cc2)c1 (centres unmarked) [B1K098-01, 4-[4-[1-[4-(5-Ethoxypyridin-3-yl)phenyl]ethyl]piperazin-1-yl]-N-(2,2,2-trifluoroethyl)benzamide]	−1.1%	−2.4%		
CCOc1cccc(-c2ccc(C(C)N3CCN(c4ccc(C(=O)NCC(F)(F)F)cc4)CC3)c(F)c2)c1 (centres unmarked) [B1K099-01, 4-[4-[1-[4-(3-Ethoxyphenyl)-2-fluorophenyl]ethyl]piperazin-1-yl]-N-(2,2,2-trifluoroethyl)benzamide]	0.0%	0.0%		
CCOc1cncc(-c2ccc(C(C)N3CCN(c4ccc(C(=O)NCC(F)(F)F)cc4)CC3)c(F)c2)c1 (centres unmarked) [B1K100-01, 4-[4-[1-[4-(5-Ethoxypyridin-3-yl)-2-fluorophenyl]ethyl]piperazin-1-yl]-N-(2,2,2-trifluoroethyl)benzamide]	0.0%	0.0%		
CCCNC(=O)c1ccc(N2CCN(Cc3cc(OC(C)C)cc(-c4cccc(OCC)c4)c3)CC2)cc1 [B1M015-01]	−2.4%	−3.0%		
CCCNC(=O)c1ccc(N2CCN(Cc3cc(-c4cccc(OCC)c4)cc(C(F)(F)F)c3)CC2)nn1 [B1M027-01]	1.0%	0.4%		
CCCNC(=O)c1ccc(N2CCN(Cc3cc(OC(F)(F)F)cc(-c4cccc(OCC)c4)c3)CC2)nn1 [B1M033-01]	0.3%	0.0%		
CCCNC(=O)c1ccc(N2CCN(Cc3ccccc3-c3cncc(OCC)c3)CC2)nn1 [B1M043-01]	2.2%	−3.1%		
CCCNC(=O)c1ccc(N2CCN(Cc3ccccc3C#Cc3cccc(OCC)c3)CC2)cc1 [B1M052-01]	27.6%	20.2%		
CCCNC(=O)c1ccc(N2CCN(Cc3ccccc3C#Cc3cncc(OCC)c3)CC2)cc1 [B1M054-01]	0.9%	0.0%		
CCCNC(=O)c1ccc(N2CCN(Cc3ccc(-c4cccc(OCC)c4)c(C)c3)CC2)cc1 [B1M058-01]	−1.4%	−1.5%		
CCCNC(=O)c1ccc(N2CCN(Cc3ccc(-c4cncc(OCC)c4)cc3CC)CC2)cc1 [B1M075-01]	77.3%	46.1%		
CCCNC(=O)c1ccc(N2CCN(Cc3ccc(-c4cncc(OCC)c4)cc3CC)CC2)nn1 [B1M076-01, 6-[4-[[4-(5-Ethoxypyridin-3-yl)-2-ethylphenyl]methyl]piperazin-1-yl]-N-propylpyridazine-3-carboxamide]	0.5%	1.5%		
CCCNC(=O)c1ccc(N2CCN(Cc3ccc(-c4cncc(OCC)c4)cc3OC)CC2)nn1 [B1M100-01, 6-[4-[[4-(5-Ethoxypyridin-3-yl)-2-methoxyphenyl]methyl]piperazin-1-yl]-N-propylpyridazine-3-carboxamide]			0.5%	−1.5%

SMILES	ASMS ratio (%) n = 1 [1]	ASMS ratio (%) n = 2 [1]	ASMS ratio (%) n = 1 [2]	ASMS ratio (%) n = 2 [2]
CCOc1cccc(-c2csc(C(=O)N3CCN(c4ccc(C(=O)Nc5ccc(OC)cc5)nn4)CC3)c2)c1 [B1O001-01, 6-[4-[4-(3-Ethoxyphenyl)thiophene-2-carbonyl]piperazin-1-yl]-N-(4-methoxyphenyl)pyridazine-3-carboxamide]			−0.1%	−3.1%
CCOc1cncc(-c2csc(C(=O)N3CCN(c4ccc(C(=O)Nc5ccc(OC)cc5)nn4)CC3)c2)c1 [B1O002-01, 6-[4-[4-(5-Ethoxypyridin-3-yl)thiophene-2-carbonyl]piperazin-1-yl]-N-(4-methoxyphenyl)pyridazine-3-carboxamide]			2.2%	2.6%
CCOc1cccc(-c2ccc(C(=O)N3CCN(c4ccc(C(=O)Nc5ccc(OC)cc5)nn4)CC3)cc2C)c1 [B1O003-01, 6-[4-[4-(3-Ethoxyphenyl)-3-methylbenzoyl]piperazin-1-yl]-N-(4-methoxyphenyl)pyridazine-3-carboxamide]			0.0%	0.0%
CCOc1cncc(-c2ccc(C(=O)N3CCN(c4ccc(C(=O)Nc5ccc(OC)cc5)nn4)CC3)cc2C)c1 [B1O004-01, 6-[4-[4-(5-Ethoxypyridin-3-yl)-3-methylbenzoyl]piperazin-1-yl]-N-(4-methoxyphenyl)pyridazine-3-carboxamide]			2.8%	0.4%
CCOc1cccc(-c2ccc(C(=O)N3CCN(c4ccc(C(=O)Nc5ccc(OC)cc5)nn4)CC3)cc2F)c1 [B1O005-01, 6-[4-[4-(3-Ethoxyphenyl)-3-fluorobenzoyl]piperazin-1-yl]-N-(4-methoxyphenyl)pyridazine-3-carboxamide]			3.6%	−2.5%
CCOc1cncc(-c2ccc(C(=O)N3CCN(c4ccc(C(=O)Nc5ccc(OC)cc5)nn4)CC3)cc2F)c1 [B1O006-01, 6-[4-[4-(5-Ethoxypyridin-3-yl)-3-fluorobenzoyl]piperazin-1-yl]-N-(4-methoxyphenyl)pyridazine-3-carboxamide]			4.7%	0.8%
CCOc1cccc(C#Cc2ccccc2C(=O)N2CCN(c3ccc(C(=O)Nc4ccc(OC)cc4)nn3)CC2)c1 [B1O007-01, 6-[4-[2-[2-(3-Ethoxyphenyl)ethynyl]benzoyl]piperazin-1-yl]-N-(4-methoxyphenyl)pyridazine-3-carboxamide]			4.5%	0.9%
CCOc1cncc(C#Cc2ccccc2C(=O)N2CCN(c3ccc(C(=O)Nc4ccc(OC)cc4)nn3)CC2)c1 [B1O008-01, 6-[4-[2-[2-(5-Ethoxypyridin-3-yl)ethynyl]benzoyl]piperazin-1-yl]-N-(4-methoxyphenyl)pyridazine-3-carboxamide]			1.1%	1.3%
CCOc1cccc(C#Cc2cncc(C(=O)N3CCN(c4ccc(C(=O)Nc5ccc(OC)cc5)nn4)CC3)c2)c1 [B1O009-01, 6-[4-[5-[2-(3-Ethoxyphenyl)ethynyl]pyridine-3-carbonyl]piperazin-1-yl]-N-(4-methoxyphenyl)pyridazine-3-carboxamide]			1.1%	1.3%
CCOc1cncc(C#Cc2cncc(C(=O)N3CCN(c4ccc(C(=O)Nc5ccc(OC)cc5)nn4)CC3)c2)c1 [B1O010-01, 6-[4-[5-[2-(5-Ethoxypyridin-3-yl)ethynyl]pyridine-3-carbonyl]piperazin-1-yl]-N-(4-methoxyphenyl)pyridazine-3-carboxamide]			0.0%	0.0%
CCOc1cccc(-c2ccccc2CCC(=O)N2CCN(c3ccc(C(=O)Nc4ccc(OC)cc4)nn3)CC2)c1 [B1O011-01, 6-[4-[3-[2-(3-Ethoxyphenyl)phenyl]propanoyl]piperazin-1-yl]-N-(4-methoxyphenyl)pyridazine-3-carboxamide]			0.0%	4.3%
CCOc1cncc(-c2ccccc2CCC(=O)N2CCN(c3ccc(C(=O)Nc4ccc(OC)cc4)nn3)CC2)c1 [B1O012-01, 6-[4-[3-[2-(5-Ethoxypyridin-3-yl)phenyl]propanoyl]piperazin-1-yl]-N-(4-methoxyphenyl)pyridazine-3-carboxamide]			0.8%	−0.9%
CCOc1cccc(-c2ccc(C(=O)N3CCN(c4ccc(C(=O)Nc5ccc(OC)cc5)nn4)CC3)c3ccccc23)c1 [B1O013-01, 6-[4-[4-(3-Ethoxyphenyl)naphthalene-1-carbonyl]piperazin-1-yl]-N-(4-methoxyphenyl)pyridazine-3-carboxamide]			2.2%	−4.0%
CCOc1cncc(-c2ccc(C(=O)N3CCN(c4ccc(C(=O)Nc5ccc(OC)cc5)nn4)CC3)c3ccccc23)c1 [B1O014-01, 6-[4-[4-(5-Ethoxypyridin-3-yl)naphthalene-1-carbonyl]piperazin-1-yl]-N-(4-methoxyphenyl)pyridazine-3-carboxamide]			2.5%	0.2%
CCOc1cccc(-c2cc(C(=O)N3CCN(c4ccc(C(=O)Nc5ccc(OC)cc5)nn4)CC3)cc(C(C)(C)C)c2)c1 [B1O015-01, 6-[4-[3-tert-Butyl-5-(3-ethoxyphenyl)benzoyl]piperazin-1-yl]-N-(4-methoxyphenyl)pyridazine-3-carboxamide]			6.0%	−2.7%
